These results are taken from US10189854B2, “Substituted pyrimidine compounds” (Grünenthal GmbH, priority 2014, dated 2019).

This test deals with human PDE4B1 (Homo sapiens (Human), UniProt Q07343). The test is described as follows: cAMP HTRF assay to determine the activity of hPDE4B1. Type of test: biochemical. Particulars: IC50 inhibition of PDE4B; human recombinant PDE4B1, cAMP HTRF assay. On the procedure:
Biological Testing cAMP HTRF® Assay to Determine the Activity of hPDE4B1
The inhibiting effect of the compounds on the enzyme activity of human PDE4B1 was measured by the quantification of 5′-adenosine monophosphate (5′-AMP), which is formed from 3′,5′-cyclic adenosine monophosphate (cAMP). Human recombinant enzyme, expressed in Sf9 cells, and the HTRF (homogeneous time-resolved fluorescence) detection method were used in the assay.
The test compound or water (control) was mixed with the human recombinant PDE4B1 enzyme (4.8 U) in a buffer consisting of 44.4 mM tris-HCl, 5.28 mM MgCl2, 2.64 mM DTT and 0.044% Tween 20 (pH 7.8). After adding the cAMP enzyme substrate (final concentration 40 nM), the mixture was incubated for 30 minutes at room temperature. Then a fluorescence acceptor (Dye2 marked with cAMP), a fluorescence donor (anti-cAMP antibody marked with a europium cryptate) and the non-specific phosphodiesterase inhibitor IBMX (3-isobutyl-1-methylxanthine; final concentration 1 mM) were added. After 60 min the fluorescence transfer, which correlates with the amount of remaining cAMP, was measured with a microplate reader (Rubystar, BMG) at λex=337 nm, λem=620 nm and λem=665 nm. The enzyme activity was calculated from the quotient formed from the measured signal at 665 nm and that at 620 nm. The result was expressed as the percentage inhibition of enzyme activity of the control (without PDE4 inhibitor). The enzyme was omitted for measurement of the basal control.
[N. Saldou et al., Comparison of recombinant human PDE4 isoforms: interaction with substrate and inhibitors, Cell. Signal. Vol. 10, No. 6, 427-440, 1998]. Several compounds according to the invention are tested in the above-described assay.

Sequence of human PDE4B1 (Q07343 whole entry): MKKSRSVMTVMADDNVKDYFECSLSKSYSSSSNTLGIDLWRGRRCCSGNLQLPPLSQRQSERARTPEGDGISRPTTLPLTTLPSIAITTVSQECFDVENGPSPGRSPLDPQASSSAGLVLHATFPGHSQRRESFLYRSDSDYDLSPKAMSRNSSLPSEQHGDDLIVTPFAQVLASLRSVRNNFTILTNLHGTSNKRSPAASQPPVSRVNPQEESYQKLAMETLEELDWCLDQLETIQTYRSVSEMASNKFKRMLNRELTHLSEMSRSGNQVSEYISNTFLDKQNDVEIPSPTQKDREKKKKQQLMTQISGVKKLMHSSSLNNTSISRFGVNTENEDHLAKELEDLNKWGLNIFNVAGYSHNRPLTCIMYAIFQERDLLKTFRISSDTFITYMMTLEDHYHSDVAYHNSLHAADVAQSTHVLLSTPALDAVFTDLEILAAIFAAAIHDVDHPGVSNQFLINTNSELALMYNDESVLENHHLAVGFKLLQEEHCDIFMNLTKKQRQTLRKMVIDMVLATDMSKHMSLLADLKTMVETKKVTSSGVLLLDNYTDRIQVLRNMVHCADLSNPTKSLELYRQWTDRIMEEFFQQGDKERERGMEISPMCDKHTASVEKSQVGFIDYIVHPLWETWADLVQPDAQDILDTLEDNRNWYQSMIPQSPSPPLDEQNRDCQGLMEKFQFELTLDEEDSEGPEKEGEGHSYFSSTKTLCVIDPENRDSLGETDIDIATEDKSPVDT

Broadly, the IC50 is the concentration at which inhibition is half-maximal. Regarding `O=C(c1ccc2c(c1)N(c1ncc(-c3ccccc3F)cn1)CC21CC1)N1CCN(CCO)CC1` [Compound 34, [1-[5-(2-Fluorophenyl)-pyrimidin-2-yl]-spiro[1,2-dihydro-indole-3,1′-cyclopropane]-6-yl]-[4-(2-hydroxy-ethyl)-piperazin-1-yl]-methanone], the IC50 is below 0.1 µM. With `COc1ccc(C(N)=O)c(-c2cnc(N3CC4(CC4)c4ccc(C(=O)N5CCNCC5)cc43)nc2)c1` [Compound 122, 4-Methoxy-2-[2-[6-(piperazine-1-carbonyl)-spiro[1,2-dihydro-indole-3,1′-cyclopropane]-1-yl]-pyrimidin-5-yl]-benzamide], the IC50 was 1 to 10 µM. For `O=C(c1ccc2c(c1)N(c1ncc(-c3ccccc3F)cn1)CC21CC1)N1CC2CC1CN2` (stereo not drawn) [Compound 107, (2,5-Diazabicyclo[2.2.1]heptan-2-yl)-[1-[5-(2-fluorophenyl)-pyrimidin-2-yl]-spiro[1,2-dihydro-indole-3,1′-cyclopropane]-6-yl]-methanone] the value was below 0.1 µM.

In the case of `O=C(c1ccc2c(c1)N(c1ncc(-c3ccccc3F)cn1)CC21CC1)N1CCN(C2CC2)CC1` [Compound 66, (4-Cyclopropyl-piperazin-1-yl)-[1-[5-(2-fluorophenyl)-pyrimidin-2-yl]-spiro[1,2-dihydro-indole-3,1′-cyclopropane]-6-yl]-methanone], the IC50 lay in the range of 1 to 10 µM. For `O=C(c1ccc2c(c1)N(c1ncc(-c3ccccc3C3CC3)cn1)CC21CC1)N1CCOCC1` [Compound 62, [1-[5-(2-Cyclopropyl-phenyl)-pyrimidin-2-yl]-spiro[1,2-dihydro-indole-3,1′-cyclopropane]-6-yl]-morpholin-4-yl-methanone], the IC50 is 1 to 10 µM. As for “1-[5-(3-Cyano-phenyl)-pyrimidin-2-yl]-N-(2-hydroxy-ethyl)-N-methyl-spiro[1,2-dihydro-indole-3,1′-cyclo-propane]-6-carboxylic acid amide [Compound 193]”, the figure is below 0.1 µM; as for `Cc1cc(-c2cnc(N3CC4(CC4)c4ccc(C(=O)N5CCOCC5)cc43)nc2)ccn1` [Compound 159, [1-[5-(2-Methyl-pyridin-4-yl)-pyrimidin-2-yl]-spiro[1,2-dihydro-indole-3,1′-cyclopropane]-6-yl]-morpholin-4-yl-methanone], below 0.1 µM. On to `CN(C)C(=O)c1ccc2c(c1)N(c1ncc(-c3cccnc3F)cn1)CC21CC1` [Compound 174, 1-[5-(2-Fluoro-pyridin-3-yl)-pyrimidin-2-yl]-N,N-dimethyl-spiro[1,2-dihydro-indole-3,1′-cyclopropane]-6-carboxylic acid amide], for which the IC50 is below 0.1 µM. As for `O=C(c1ccc2c(c1)N(c1ncc(-c3ccccc3F)cn1)CC21CC1)N1CCC1` [Compound 89, (Azetidin-1-yl)-[1-[5-(2-fluorophenyl)-pyrimidin-2-yl]-spiro[1,2-dihydro-indole-3,1′-cyclopropane]-6-yl]-methanone], the figure is 0.1 to 1 µM. On to `O=C(c1ccc2c(c1)N(c1ncc(-c3cc(F)cc(F)c3)cn1)CC21CC1)N1CCOCC1` [Compound 50, [1-[5-(3,5-Difluoro-phenyl)-pyrimidin-2-yl]-spiro[1,2-dihydro-indole-3,1′-cyclopropane]-6-yl]-morpholin-4-ylmethanone], for which the IC50 is below 0.1 µM. For “[1-[5-(1-Fluorophenyl)-pyrimidin-2-yl]-spiro[1,2-dihydro-indole-3,1′-cyclopropane]-6-yl]-pyrrolidin-1-yl-methanone [Compound 3]” the value was below 0.1 µM; for `N#Cc1ccc(F)c(-c2cnc(N3CC4(CC4)c4ccc(C(=O)N5CCNCC5)cc43)nc2)c1` [Compound 109, 4-Fluoro-3-[2-[6-(piperazine-1-carbonyl)-spiro[1,2-dihydro-indole-3,1′-cyclopropane]-1-yl]-pyrimidin-5-yl]-benzonitrile], below 0.1 µM; for `CN[C@@H]1CCN(C(=O)c2ccc3c(c2)N(c2ncc(-c4ccccc4F)cn2)CC32CC2)C1` [Compound 121, [1-[5-(2-Fluorophenyl)-pyrimidin-2-yl]-spiro[1,2-dihydro-indole-3,1′-cyclopropane]-6-yl]-[(3R)-3-methylamino-pyrrolidin-1-yl]-methanone], below 0.1 µM. For `COC1CCN(C(=O)c2ccc3c(c2)N(c2ncc(-c4ccccc4F)cn2)CC32CC2)CC1` [Compound 100, [1-[5-(2-Fluorophenyl)-pyrimidin-2-yl]-spiro[1,2-dihydro-indole-3,1′-cyclopropane]-6-yl]-(4-methoxy-piperidin-1-yl)-methanone] the value was 0.1 to 1 µM; for `O=C(c1ccc2c(c1)N(c1ncc(-c3sccc3Cl)cn1)CC21CC1)N1CCOCC1` [Compound 133, [1-[5-(3-Chloro-thiophen-2-yl)-pyrimidin-2-yl]-spiro[1,2-dihydro-indole-3,1′-cyclopropane]-6-yl]-morpholin-4-yl-methanone], 0.1 to 1 µM; for `CN(CCO)C(=O)c1ccc2c(c1)N(c1ncc(-c3cccc(F)c3)cn1)CC21CC1` [Compound 129, 1-[5-(3-Fluorophenyl)-pyrimidin-2-yl]-N-(2-hydroxy-ethyl)-N-methyl-spiro[1,2-dihydro-indole-3,1′-cyclopropane]-6-carboxylic acid amide], below 0.1 µM. Take `O=C(c1ccc2c(c1)N(c1ncc(-c3ccc(F)cc3F)cn1)CC21CC1)N1CCNCC1` [Compound 71, [1-[5-(2,4-Difluoro-phenyl)-pyrimidin-2-yl]-spiro[1,2-dihydro-indole-3,1′-cyclopropane]-6-yl]-piperazin-1-yl-methanone]: the IC50 fell in the range of 0.1 to 1 µM.

On to `O=C(c1ccc2c(c1)N(c1ncc(-c3ccccc3F)cn1)CC21CC1)N1CC2(COC2)C1` [Compound 64, [1-[5-(2-Fluorophenyl)-pyrimidin-2-yl]-spiro[1,2-dihydro-indole-3,1′-cyclopropane]-6-yl]-(2-oxa-6-azaspiro[3.3]heptan-6-yl)-methanone], for which the IC50 was in the range of 1 to 10 µM.

Take `NC(=O)c1ccc2c(c1)N(c1ncc(-c3ccccc3F)cn1)CC21CC1` [Compound 127, 1-[5-(2-Fluorophenyl)-pyrimidin-2-yl]-spiro[1,2-dihydro-indole-3,1′-cyclopropane]-6-carboxylic acid amide]: the IC50 lay in the range of 0.1 to 1 µM. As for `N[C@@H]1CCN(C(=O)c2ccc3c(c2)N(c2ncc(-c4ccccc4F)cn2)CC32CC2)C1` [Compound 40, [(3R)-3-Amino-pyrrolidin-1-yl]-[1-[5-(2-fluorophenyl)-pyrimidin-2-yl]-spiro[1,2-dihydro-indole-3,1′-cyclopropane]-6-yl]-methanone], the figure is below 0.1 µM; as for `Cc1ncccc1-c1cnc(N2CC3(CC3)c3ccc(C(=O)N4CCOCC4)cc32)nc1` [Compound 167, [1-[5-(2-Methyl-pyridin-3-yl)-pyrimidin-2-yl]-spiro[1,2-dihydro-indole-3,1′-cyclopropane]-6-yl]-morpholin-4-yl-methanone], below 0.1 µM. For `Cc1noc(C)c1-c1cnc(N2CC3(CC3)c3ccc(C(=O)N4CCOCC4)cc32)nc1` [Compound 135, [1-[5-(3,5-Dimethyl-isoxazol-4-yl)-pyrimidin-2-yl]-spiro[1,2-di-hydro-indole-3,1′-cyclopropane]-6-yl]-morpholin-4-yl-methanone] the value was 0.1 to 1 µM; for `O=C(NCC1CCOCC1)c1ccc2c(c1)N(c1ncc(-c3ccccc3F)cn1)CC21CC1` [Compound 82, 1-[5-(2-Fluorophenyl)-pyrimidin-2-yl]-N-(tetrahydro-pyran-4-yl-methyl)-spiro[1,2-dihydro-indole-3,1′-cyclopropane]-6-carboxylic acid amide], 1 to 10 µM. Take `CN(C(=O)c1ccc2c(c1)N(c1ncc(-c3ccccc3F)cn1)CC21CC1)C1CC1` [Compound 46, N-Cyclopropyl-1-[5-(2-fluorophenyl)-pyrimidin-2-yl]-N-methyl-spiro[1,2-dihydro-indole-3,1′-cyclopropane]-6-carboxylic acid amide]: the IC50 was in the range of 0.1 to 1 µM. As for `O=C(c1ccc2c(c1)N(c1ncc(-c3ccc(CO)o3)cn1)CC21CC1)N1CCOCC1` [Compound 142, [1-[5-[5-(Hydroxymethyl)-furan-2-yl]-pyrimidin-2-yl]-spiro[1,2-di-hydro-indole-3,1′-cyclopropane]-6-yl]-morpholin-4-yl-methanone], the figure is below 0.1 µM; as for `N#Cc1ccc(F)c(-c2cnc(N3CC4(CC4)c4ccc(C(=O)N5CC[C@@H](N)C5)cc43)nc2)c1` [Compound 123, 3-[2-[6-[(3R)-3-Amino-pyrrolidine-1-carbonyl]-spiro[1,2-dihydro-indole-3,1′-cyclopropane]-1-yl]-pyrimidin-5-yl]-4-fluoro-benzonitrile], below 0.1 µM. `O=C(c1ccc2c(c1)N(c1ncc(-c3ccc(F)s3)cn1)CC21CC1)N1CCOCC1` [Compound 148, [1-[5-(5-Fluoro-thiophen-2-yl)-pyrimidin-2-yl]-spiro[1,2-dihydro-indole-3,1′-cyclopropane]-6-yl]-morpholin-4-yl-methanone]: the IC50 is below 0.1 µM.
